For 33 compounds, IC50 results are on record in patent publication US8173682B2, “Substituted pyridones as inhibitors of poly(ADP-ribose) polymerase (PARP)” (Aventis Pharmaceuticals Inc., priority 2004, dated 2012).

Where a name gives a salt, the structure may show the parent alone.

This assay addresses recombinantly expressed human PARP-1 enzyme (Homo sapiens, UniProt P09874). As to the kind of experiment: PARP enzyme assay, Method B (tritium-labeled NAD incorporation). The following applies: Method B; 200 μM NAD, room temperature 1 hour, pH 8.0; read-out: IC50 (μM)/Method B. In kind it is biochemical. How it is done:
Method B: PARP Enzyme Assay:
The IC50 is determined in this method by incubating the substances to be tested with the DNA-activated, recombinantly expressed and purified PARP-1 enzyme. Specifically, various concentrations of the test substance are incubated in 50 μL of reaction solution, which contains 50 mM Tris, 5 mM MgCl2, 1 mM DTT, 200 μM NAD, 0.1 m Ci/mL tritium-labeled NAD, 0.1 mg/mL DNA, 0.1 mg/mL histones, 2 μg/mL recombinantly expressed human PARP-1 enzyme, pH=8.0, at room temperature for 1 hour. The reaction is stopped by adding 150 μL of 20% trichloroacetic acid, and the radiolabeled protein constituents are precipitated. After incubation on ice for 10 minutes, the labeled, insoluble constituents are separated off through a glass fiber filter and, after washing with 20% trichloroacetic acid three times, the radioactivity incorporated by the PARP-1 enzyme is measured by radioluminescence. Consideration of the incorporation rates determined in this way as a function of the concentration of the test substance results in IC50 as the concentration of the test substance which reduces the incorporation rate to half the maximum value attainable (incubation without inhibitor).
The IC50 (fifty percent inhibitory concentration of the test substance in a solution—expressed at micromolar (μM) concentration) measured in accordance with these procedures for the compounds of this invention are summarized in Table 1.

Chain of recombinantly expressed human PARP-1 enzyme (P09874 whole entry): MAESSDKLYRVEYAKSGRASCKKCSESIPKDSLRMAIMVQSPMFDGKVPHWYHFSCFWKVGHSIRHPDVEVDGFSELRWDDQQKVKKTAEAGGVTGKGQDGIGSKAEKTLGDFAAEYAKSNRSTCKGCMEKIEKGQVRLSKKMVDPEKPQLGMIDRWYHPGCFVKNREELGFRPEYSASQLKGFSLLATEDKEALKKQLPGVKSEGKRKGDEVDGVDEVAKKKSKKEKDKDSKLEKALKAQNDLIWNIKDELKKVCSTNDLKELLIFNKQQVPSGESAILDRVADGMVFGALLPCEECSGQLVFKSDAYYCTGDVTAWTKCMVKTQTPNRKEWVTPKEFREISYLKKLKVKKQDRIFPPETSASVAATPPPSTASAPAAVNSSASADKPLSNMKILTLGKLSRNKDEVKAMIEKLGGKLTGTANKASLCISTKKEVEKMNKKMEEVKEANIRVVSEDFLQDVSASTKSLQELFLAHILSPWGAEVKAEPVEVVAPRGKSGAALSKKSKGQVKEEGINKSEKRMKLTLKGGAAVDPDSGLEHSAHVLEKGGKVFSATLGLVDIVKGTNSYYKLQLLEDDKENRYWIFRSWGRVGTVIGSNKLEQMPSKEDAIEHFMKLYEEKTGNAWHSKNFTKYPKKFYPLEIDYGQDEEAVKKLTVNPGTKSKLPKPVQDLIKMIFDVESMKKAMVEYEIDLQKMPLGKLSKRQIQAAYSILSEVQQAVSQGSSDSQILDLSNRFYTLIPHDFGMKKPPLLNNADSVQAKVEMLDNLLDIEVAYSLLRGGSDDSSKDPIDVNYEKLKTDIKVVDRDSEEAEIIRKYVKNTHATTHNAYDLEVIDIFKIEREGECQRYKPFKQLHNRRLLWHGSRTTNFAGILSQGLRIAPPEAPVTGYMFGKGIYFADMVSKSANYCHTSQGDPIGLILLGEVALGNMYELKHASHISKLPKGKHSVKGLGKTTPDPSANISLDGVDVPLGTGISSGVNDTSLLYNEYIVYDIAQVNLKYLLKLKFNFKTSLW

For the compound `CCc1cc(-c2ccc(CO)o2)c(C)[nH]c1=O` [Example 200A, 3-Ethyl-5-(5-hydroxymethyl-furan-2-yl)-6-methyl-1H-pyridin-2-one], the IC50 came to 1.03 µM.
`CCc1cc(-c2cncc(C(=O)NCC(=O)c3ccccc3)c2)c(C)[nH]c1=O` [Example 244, 5′-Ethyl-2′-methyl-6′-oxo-1′,6′-dihydro-[3,3′]bipyridinyl-5-carboxylic acid (2-oxo-2-phenyl-ethyl)-amide]: the IC50 amounted to 0.32 µM.
Then `CCc1cc(-c2cncc(C(=O)Nc3cccc(OC)c3)c2)c(C)[nH]c1=O` [Example 248, 5′-Ethyl-2′-methyl-6′-oxo-1′,6′-dihydro-[3,3′]bipyridinyl-5-carboxylic acid (3-methoxy-phenyl)-amide], with 0.85 µM.
Then `CCc1cc(-c2cccc(CNCc3ccccn3)n2)c(C)[nH]c1=O` [Example 182H, 5′-Ethyl-2′-methyl-6-{[(pyridin-2-ylmethyl)-amino]-methyl}-1′H-[2,3′]bipyridinyl-6′-one], with 1.11 µM; and `CCc1cc(-c2ccc(C(=O)N3CCCC3)cn2)c(C)[nH]c1=O` [Example 211, 5′-Ethyl-2′-methyl-5-(pyrrolidine-1-carbonyl)-1′H-[2,3′]bipyridinyl-6′-one], with 8.6 µM.
Then `CCc1cc(-c2ccc(CN(Cc3ccccc3)Cc3cccnc3)o2)c(C)[nH]c1=O` [Example 182A, 5-{5-[(Benzyl-pyridin-3-ylmethyl-amino)-methyl]-furan-2-yl}-3-ethyl-6-methyl-1H-pyridin-2-one], with 17.4 µM; and `CCCCNC(=O)c1ccnc(-c2cc(CC)c(=O)[nH]c2C)c1` [Example 215, 5′-Ethyl-2′-methyl-6′-oxo-1′,6′-dihydro-[2,3′]bipyridinyl-4-carboxylic acid butylamide], with 1.25 µM.
As to `CCc1cc(-c2cncc(C(=O)NCCN3C(=O)CSC3=O)c2)c(C)[nH]c1=O` [Example 254, 5′-Ethyl-2′-methyl-6′-oxo-1′,6′-dihydro-[3,3′]bipyridinyl-5-carboxylic acid [2-(2,4-dioxo-thiazolidin-3-yl)-ethyl]-amide], the IC50 turned out to be 11.7 µM.
Take `CCc1cc(-c2cncc(C(=O)NCCc3nc4ccccc4[nH]3)c2)c(C)[nH]c1=O` [Example 245, 5′-Ethyl-2′-methyl-6′-oxo-1′,6′-dihydro-[3,3′]bipyridinyl-5-carboxylic acid [2-(1H-benzoimidazol-2-yl)-ethyl]-amide]: the IC50 turned out to be 1.9 µM.
Next, `CCc1cc(-c2ccc(CNC(=O)CN3CCCC3)s2)c(C)[nH]c1=O` [Example 276, N-[5-(5-Ethyl-2-methyl-6-oxo-1,6-dihydropyridin-3-yl)-thiophen-2-ylmethyl]-2-pyrrolidin-1-yl-acetamide]: 0.8 µM; `CCc1cc(-c2cc(C(=O)N3CCCC3)ccn2)c(C)[nH]c1=O` [Example 214, 5′-Ethyl-2′-methyl-4-(pyrrolidine-1-carbonyl)-1′H-[2,3′]bipyridinyl-6′-one]: 1.4 µM; `CCc1cc(-c2cc(C(=O)NCCN3CCOCC3)ccn2)c(C)[nH]c1=O` [Example 217, 5′-Ethyl-2′-methyl-6′-oxo-1′,6′-dihydro-[2,3′]bipyridinyl-4-carboxylic acid (2-morpholin-4-yl-ethyl)-amide]: 2.87 µM.
For the compound `CCc1cc(-c2ccc(S(=O)(=O)N3CCN(c4ncccn4)CC3)s2)c(C)[nH]c1=O` [Example 117, 3-Ethyl-6-methyl-5-[5-(4-pyrimidin-2-yl-piperazine-1-sulfonyl)thiophen-2-yl]-1H-pyridin-2-one hydrochloride], the IC50 was determined as 25.5 µM.
Then `CCc1cc(-c2cc(C(=O)NC3CCCC3)ccn2)c(C)[nH]c1=O` [Example 216, 5′-Ethyl-2′-methyl-6′-oxo-1′,6′-dihydro-[2,3′]bipyridinyl-4-carboxylic acid cyclopentylamide], with 1.5 µM; and `CCc1cc(-c2cncc(C(=O)N3CCN(C(=O)C4CC4)CC3)c2)c(C)[nH]c1=O` [Example 252, 5′-(4-Cyclopropanecarbonyl-piperazine-1-carbonyl)-5-ethyl-2-methyl-1H-[3,3′]bipyridinyl-6-one], with 6.1 µM.
Next, `CCc1cc(-c2coc(CNCc3ccccn3)c2)c(C)[nH]c1=O` [Example 182F, 3-Ethyl-6-methyl-5-(5-{[(pyridin-2-ylmethyl)-amino]-methyl}-furan-3-yl)-1H-pyridin-2-one]: 1.62 µM.
Then `CCc1cc(-c2ccc(CNC(=O)c3ccc(OC)cc3)o2)c(C)[nH]c1=O` [Example 272, N-[5-(5-Ethyl-2-methyl-6-oxo-1,6-dihydro-pyridin-3-yl)-furan-2-ylmethyl]-4-methoxy-benzamide], with 0.44 µM; and `CCc1cc(-c2ccc(CNCc3cnn(C)c3)o2)c(C)[nH]c1=O` [Example 182D, 3-Ethyl-6-methyl-5-(5-{[(1-methyl-1H-pyrazol-4-ylmethyl)-amino]-methyl}-furan-2-yl)-1H-pyridin-2-one], with 0.3 µM.
As for `CCc1cc(-c2cncc(C(=O)NCC3CCC(C#N)CC3)c2)c(C)[nH]c1=O` (stereo not drawn) [Example 262, 5′-Ethyl-2′-methyl-6′-oxo-1′,6′-dihydro-[3,3′]bipyridinyl-5-carboxylic acid (4-cyano-cyclohexylmethyl)-amide], the IC50 worked out at 2.22 µM.
Next, `CCc1cc(-c2cncc(C(=O)NCc3cccc(OC)c3)c2)c(C)[nH]c1=O` [Example 263, 5′-Ethyl-2′-methyl-6′-oxo-1′,6′-dihydro-[3,3′]bipyridinyl-5-carboxylic acid 3-methoxy-benzylamide]: 2.67 µM; `CCc1cc(-c2cncc(C(=O)Nc3cc(C(C)(C)C)on3)c2)c(C)[nH]c1=O` [Example 259, 5′-Ethyl-2′-methyl-6′-oxo-1′,6′-dihydro-[3,3′]bipyridinyl-5-carboxylic acid (5-tert-butyl-isoxazol-3-yl)-amide]: 0.73 µM.
As for `CCc1cc(-c2cncc(C(=O)NCc3ccc(O)c(OC)c3)c2)c(C)[nH]c1=O` [Example 265, 5′-Ethyl-2′-methyl-6′-oxo-1′,6′-dihydro-[3,3′]bipyridinyl-5-carboxylic acid 4-hydroxy-3-methoxy-benzylamide], the IC50 turned out to be 4.1 µM.
As to `CCc1cc(-c2ccc(CNC(=O)c3cccc(N(C)C)c3)o2)c(C)[nH]c1=O` [Example 275, 3-Dimethylamino-N-[5-(5-ethyl-2-methyl-6-oxo-1,6-dihydro-pyridin-3-yl)-furan-2-ylmethyl]-benzamide], the IC50 came to 1.26 µM.
Then `CCc1cc(-c2cncc(C(=O)NC(c3cccnc3)C3CC3)c2)c(C)[nH]c1=O` (stereo not drawn) [Example 228, 5′-Ethyl-2′-methyl-6′-oxo-1′,6′-dihydro-[3,3′]bipyridinyl-5-carboxylic acid (cyclopropyl-pyridin-3-yl-methyl)-amide], with 10.7 µM; and `CCc1cc(-c2cncc(C(=O)NCc3ccc(S(N)(=O)=O)cc3)c2)c(C)[nH]c1=O` [Example 255, 5′-Ethyl-2′-methyl-6′-oxo-1′,6′-dihydro-[3,3′]bipyridinyl-5-carboxylic acid 4-sulfamoyl-benzylamide], with 0.28 µM.
Then `CCc1cc(-c2ccc(CNCc3ccc(NC(C)=O)cc3)o2)c(C)[nH]c1=O` [Example 182B, N-[4-({[5-(5-Ethyl-2-methyl-6-oxo-1,6-dihydro-pyridin-3-yl)-furan-2-ylmethyl]-amino}-methyl)-phenyl]-acetamide], with 0.29 µM.
As for `CCc1cc(-c2ccc(CNCc3ccccc3OC(F)(F)F)o2)c(C)[nH]c1=O` [Example 182E, 3-Ethyl-6-methyl-5-{5-[(2-trifluoromethoxy-benzylamino)-methyl]-furan-2-yl}-1H-pyridin-2-one], the IC50 came out at 1.49 µM.
Then `CCc1cc(-c2cncc(C(=O)NCCc3ccc(OC)cc3)c2)c(C)[nH]c1=O` [Example 239, 5′-Ethyl-2′-methyl-6′-oxo-1′,6′-dihydro-[3,3′]bipyridinyl-5-carboxylic acid [2-(4-methoxy-phenyl)-ethyl]-amide], with 0.94 µM; and `CCc1cc(-c2cncc(C(=O)Nc3ccc(C(C)=O)cc3)c2)c(C)[nH]c1=O` [Example 246, 5′-Ethyl-2′-methyl-6′-oxo-1′,6′-dihydro-[3,3′]bipyridinyl-5-carboxylic acid (4-acetyl-phenyl)-amide], with 0.64 µM; and `CCc1cc(-c2ccc(CNC(C)=O)o2)c(C)[nH]c1=O` [Example 274, N-[5-(5-Ethyl-2-methyl-6-oxo-1,6-dihydro-pyridin-3-yl)-furan-2-ylmethyl]-acetamide], with 0.83 µM.
Next, `CCc1cc(-c2cncc(C(=O)NCc3cccnc3)c2)c(C)[nH]c1=O` [Example 222, 5′-Ethyl-2′-methyl-6′-oxo-1′,6′-dihydro-[3,3′]bipyridinyl-5-carboxylic acid (pyridin-3-ylmethyl)-amide]: 0.75 µM.
Next, `CCc1cc(-c2ccc(C(=O)N3CCN(c4ccccc4)CC3)o2)c(C)[nH]c1=O` [Example 201, 3-Ethyl-6-methyl-5-[5-(4-phenyl-piperazine-1-carbonyl)-furan-2-yl]-1H-pyridin-2-one]: 1.35 µM; `CCc1cc(-c2cncc(C(=O)NC3CCCC3)c2)c(C)[nH]c1=O` [Example 219, 5′-Ethyl-2′-methyl-6′-oxo-1′,6′-dihydro-[3,3′]bipyridinyl-5-carboxylic acid cyclopentylamide]: 1.53 µM.
